# Data as given in ChEMBL document CHEMBL4373744, “Modifying the lipophilic part of phenylthiazole antibiotics to control their drug-likeness” (Eur J Med Chem, 2020).
# Active and inactive are the calls of the source. The calls are words filed in the database; no cut-off is given here.
# Key:
# Escherichia coli [1] = assay: Antimicrobial activity against Escherichia coli BW25113 by broth liquid microdilution method; assay type: functional
# Staphylococcus aureus [2] = assay: microbe, parasite or virus in culture; conditions: NRS384
# Description: Antimicrobial activity against methicillin-resistant Staphylococcus aureus NRS384 by broth liquid microdilution method
# Escherichia coli [3] = assay: Antimicrobial activity against Escherichia coli JW55031 harboring deltatolC mutant by broth liquid microdilution method; assay type: functional
# Streptococcus pneumoniae [4] = assay: Antimicrobial activity against cephalosporin-resistant Streptococcus pneumoniae ATCC 51916 by broth liquid microdilution method; assay type: functional
# Enterococcus faecalis = assay: microbe, parasite or virus in culture; conditions: ATCC 51299
# Staphylococcus aureus [5] = assay: microbe, parasite or virus in culture; conditions: ATCC 6538
# Description: Antimicrobial activity against methicillin-sensitive Staphylococcus aureus ATCC 6538 by broth liquid microdilution method
# Staphylococcus aureus [6] = assay: Bactericidal activity against methicillin-resistant Staphylococcus aureus USA400 assessed as 3 log reduction in number of colony forming units at 5 times MIC incubated for 10 hrs by aliquots transfer to tryptic soy agar and grown for 18 to 20 hrs by Time-kill assay relative to control; assay type: functional; parameters: scale not given: the % may be the effect or the level left
# Staphylococcus aureus [7] = assay: microbe, parasite or virus in culture; conditions: NRS123
# Description: Antimicrobial activity against methicillin-resistant Staphylococcus aureus NRS123 by broth liquid microdilution method
# Enterococcus faecium = assay: Antimicrobial activity against vancomycin-resistant Enterococcus faecium ATCC 700221 by broth liquid microdilution method; assay type: functional
# Staphylococcus aureus [8] = assay: microbe, parasite or virus in culture; conditions: NRS 385
# Description: Antimicrobial activity against methicillin-resistant Staphylococcus aureus NRS 385 by broth liquid microdilution method
# Listeria monocytogenes = assay: Antimicrobial activity against Listeria monocytogenes ATCC 19111 by broth liquid microdilution method; assay type: functional
# Streptococcus pneumoniae [9] = assay: Antimicrobial activity against methicillin-resistant Streptococcus pneumoniae ATCC 700677 by broth liquid microdilution method; assay type: functional
# Staphylococcus aureus [10] = assay: microbe, parasite or virus in culture; conditions: NRS119
# Description: Antimicrobial activity against methicillin-resistant Staphylococcus aureus NRS119 by broth liquid microdilution method
# Staphylococcus aureus [11] = assay: Antimicrobial activity against vancomycin-resistant Staphylococcus aureus 12 by broth liquid microdilution method; assay type: functional
# Staphylococcus aureus [12] = assay: microbe, parasite or virus in culture; conditions: NRS 386
# Description: Antimicrobial activity against methicillin-resistant Staphylococcus aureus NRS 386 by broth liquid microdilution method
# Staphylococcus aureus [13] = assay: Bactericidal activity against methicillin-resistant Staphylococcus aureus USA400 assessed as reduction in number of colony forming units at 5 times MIC incubated for 24 hrs by aliquots transfer to tryptic soy agar and grown for 18 to 20 hrs by Time-kill assay; assay type: functional, organism-based
# [14] = system: Staphylococcus epidermidis; assay: Antimicrobial activity against methicillin-resistant Staphylococcus epidermidis NRS101 by broth liquid microdilution method; assay type: functional
# Staphylococcus aureus [15] = assay: microbe, parasite or virus in culture; conditions: NRS 107
# Description: Antimicrobial activity against methicillin-sensitive Staphylococcus aureus NRS 107 by broth liquid microdilution method
# Staphylococcus aureus [16] = assay: Antimicrobial activity against vancomycin-resistant Staphylococcus aureus 10 by broth liquid microdilution method; assay type: functional
smiles,measurement,setting,value
C/C(=N\NC(=N)N)c1sc(-c2ccc(C#CCCN3CCCCC3)cc2)nc1C,MIC,Escherichia coli [1],> 64 mg/L
same,MIC,Staphylococcus aureus [2],8 mg/L
same,MIC,Escherichia coli [3],32 mg/L
C/C(=N\NC(=N)N)c1sc(-c2ccc(OCCCN3CCSC3)cc2)nc1C,MIC,Escherichia coli [1],> 64 mg/L
same,MIC,Staphylococcus aureus [2],16 mg/L
same,MIC,Escherichia coli [3],32 mg/L
C/C(=N\NC(=N)N)c1sc(-c2ccc(OCCCN3CCCCC3C)cc2)nc1C (stereo unspecified),MIC,Escherichia coli [1],> 64 mg/L
same,MIC,Staphylococcus aureus [2],64 mg/L
same,MIC,Escherichia coli [3],> 64 mg/L
C/C(=N\NC(=N)N)c1sc(-c2ccc(OCCCN3CCN(C)CC3)cc2)nc1C,MIC,Escherichia coli [1],> 64 mg/L
same,MIC,Staphylococcus aureus [2],> 64 mg/L
same,MIC,Escherichia coli [3],> 64 mg/L
C/C(=N\NC(=N)N)c1sc(-c2ccc(OCCCCN3CCN(C)CC3)cc2)nc1C,MIC,Escherichia coli [1],> 64 mg/L
same,MIC,Staphylococcus aureus [2],16 mg/L
same,MIC,Escherichia coli [3],32 mg/L
C/C(=N\NC(=N)N)c1sc(-c2ccc(OCCCN3CCC(C)CC3)cc2)nc1C,MIC,Escherichia coli [1],> 64 mg/L
same,MIC,Staphylococcus aureus [2],> 64 mg/L
same,MIC,Escherichia coli [3],> 64 mg/L
C/C(=N\NC(=N)N)c1sc(-c2ccc(OCCCCN3CCCC3)cc2)nc1C,MIC,Escherichia coli [1],> 64 mg/L
same,MIC,Staphylococcus aureus [2],> 64 mg/L
same,MIC,Escherichia coli [3],> 64 mg/L
C/C(=N\NC(=N)N)c1sc(-c2ccc(C#CCCN3CCC4CCCCC4C3)cc2)nc1C (stereo unspecified),MIC,Escherichia coli [1],> 64 mg/L
same,MIC,Staphylococcus aureus [2],> 64 mg/L
same,MIC,Escherichia coli [3],> 64 mg/L
C/C(=N\NC(=N)N)c1sc(-c2ccc(OCCCCN3CCC4CCCCC4C3)cc2)nc1C (stereo unspecified),MIC,Escherichia coli [1],> 64 mg/L
same,MIC,Staphylococcus aureus [2],> 64 mg/L
same,MIC,Escherichia coli [3],> 64 mg/L
C/C(=N\NC(=N)N)c1sc(-c2ccc(OCCCN3CCC3)cc2)nc1C,MIC,Escherichia coli [1],> 64 mg/L
same,MIC,Staphylococcus aureus [2],8 mg/L
same,MIC,Escherichia coli [3],64 mg/L
C/C(=N\NC(=N)N)c1sc(-c2ccc(C#CCCN3CCCCCC3)cc2)nc1C,MIC,Escherichia coli [1],> 64 mg/L
same,MIC,Staphylococcus aureus [2],8 mg/L
same,MIC,Escherichia coli [3],64 mg/L
C/C(=N\NC(=N)N)c1sc(-c2ccc(OCCCCn3ccnc3)cc2)nc1C,MIC,Escherichia coli [1],> 64 mg/L
same,MIC,Staphylococcus aureus [2],16 mg/L
same,MIC,Escherichia coli [3],32 mg/L
C/C(=N\NC(=N)N)c1sc(-c2ccc(OCCCN3CCOCC3)cc2)nc1C,MIC,Escherichia coli [1],> 64 mg/L
same,MIC,Staphylococcus aureus [2],64 mg/L
same,MIC,Escherichia coli [3],> 64 mg/L
C/C(=N\NC(=N)N)c1sc(-c2ccc(C#CCCN3CCCCC3C)cc2)nc1C (stereo unspecified),MIC,Escherichia coli [1],> 64 mg/L
same,MIC,Staphylococcus aureus [2],16 mg/L
same,MIC,Escherichia coli [3],32 mg/L
C/C(=N\NC(=N)N)c1sc(-c2ccc(OCCCCCN3CCC4CCCCC4C3)cc2)nc1C (stereo unspecified),MIC,Escherichia coli [1],> 64 mg/L
same,MIC,Staphylococcus aureus [2],> 64 mg/L
same,MIC,Escherichia coli [3],> 64 mg/L
C/C(=N\NC(=N)N)c1sc(-c2ccc(OCCCn3ccnc3)cc2)nc1C,MIC,Escherichia coli [1],> 64 mg/L
same,MIC,Staphylococcus aureus [2],32 mg/L
same,MIC,Escherichia coli [3],> 64 mg/L
C/C(=N\NC(=N)N)c1sc(-c2ccc(OCCCCN3CCSCC3)cc2)nc1C,MIC,Escherichia coli [1],> 64 mg/L
same,MIC,Staphylococcus aureus [2],> 64 mg/L
same,MIC,Escherichia coli [3],> 64 mg/L
C/C(=N\NC(=N)N)c1sc(-c2ccc(OCCCCCN3CCOCC3)cc2)nc1C,MIC,Escherichia coli [1],> 64 mg/L
same,MIC,Staphylococcus aureus [2],32 mg/L
same,MIC,Escherichia coli [3],32 mg/L
C/C(=N\NC(=N)N)c1sc(-c2ccc(C#CCCN3CCSC3)cc2)nc1C,MBC,Streptococcus pneumoniae [4],32 mg/L
same,MIC,Streptococcus pneumoniae [4],8 mg/L
same,MIC,Escherichia coli [1],64 mg/L
same,MBC,Enterococcus faecalis,32 mg/L
same,MIC,Enterococcus faecalis,8 mg/L
same,MBC,Staphylococcus aureus [5],32 mg/L
same,MIC,Staphylococcus aureus [5],4 mg/L
same,Activity,Staphylococcus aureus [6],99.9%
same,MBC,Staphylococcus aureus [7],32 mg/L
same,MIC,Staphylococcus aureus [7],4 mg/L
same,MBC,Enterococcus faecium,16 mg/L
same,MIC,Enterococcus faecium,4 mg/L
same,MBC,Staphylococcus aureus [2],32 mg/L
same,MIC,Staphylococcus aureus [2],4 mg/L
same,MBC,Staphylococcus aureus [8],16 mg/L
same,MIC,Staphylococcus aureus [8],4 mg/L
same,MBC,Listeria monocytogenes,32 mg/L
same,MIC,Listeria monocytogenes,4 mg/L
same,MBC,Streptococcus pneumoniae [9],32 mg/L
same,MIC,Streptococcus pneumoniae [9],8 mg/L
same,MBC,Staphylococcus aureus [10],16 mg/L
same,MIC,Staphylococcus aureus [10],4 mg/L
same,MBC,Staphylococcus aureus [11],32 mg/L
same,MIC,Staphylococcus aureus [11],4 mg/L
same,MBC,Staphylococcus aureus [12],16 mg/L
same,MIC,Staphylococcus aureus [12],4 mg/L
same,Activity,Staphylococcus aureus [13],Active
same,MBC,[14],8 mg/L
same,MIC,[14],2 mg/L
same,MBC,Staphylococcus aureus [15],16 mg/L
same,MIC,Staphylococcus aureus [15],8 mg/L
same,MBC,Staphylococcus aureus [16],32 mg/L
same,MIC,Staphylococcus aureus [16],4 mg/L
same,MIC,Escherichia coli [3],16 mg/L
C/C(=N\NC(=N)N)c1sc(-c2ccc(OCCCCCN3CCCC(C)C3)cc2)nc1C (stereo unspecified),MIC,Escherichia coli [1],> 64 mg/L
same,MIC,Staphylococcus aureus [2],32 mg/L
same,MIC,Escherichia coli [3],64 mg/L
C/C(=N\NC(=N)N)c1sc(-c2ccc(OCCCCCN3CCC(C)CC3)cc2)nc1C,MIC,Escherichia coli [1],> 64 mg/L
same,MIC,Staphylococcus aureus [2],32 mg/L
same,MIC,Escherichia coli [3],64 mg/L
C/C(=N\NC(=N)N)c1sc(-c2ccc(OCCCN3CCCC3)cc2)nc1C,MIC,Escherichia coli [1],> 64 mg/L
same,MIC,Staphylococcus aureus [2],16 mg/L
same,MIC,Escherichia coli [3],32 mg/L
C/C(=N\NC(=N)N)c1sc(-c2ccc(OCCCCCN3CCC3)cc2)nc1C,MIC,Escherichia coli [1],> 64 mg/L
same,MIC,Staphylococcus aureus [2],32 mg/L
same,MIC,Escherichia coli [3],64 mg/L
C/C(=N\NC(=N)N)c1sc(-c2ccc(C#CCCN3CCSCC3)cc2)nc1C,MIC,Escherichia coli [1],> 64 mg/L
same,MIC,Staphylococcus aureus [2],32 mg/L
same,MIC,Escherichia coli [3],16 mg/L
C/C(=N\NC(=N)N)c1sc(-c2ccc(OCCCCCN3CCN(C)CC3)cc2)nc1C,MIC,Escherichia coli [1],> 64 mg/L
same,MIC,Staphylococcus aureus [2],> 64 mg/L
same,MIC,Escherichia coli [3],> 64 mg/L
